From ChEMBL document CHEMBL4507261, “Data for DCP probe A-192621” (2021)

Tests used:
[1] = target: Neuropeptide Y receptor type 1 (Homo sapiens) (UniProt P25929); test: Y1 (h) Eurofins-Cerep binding assay; set-up: ligand concentration 0.025 nM; conditions: filed as agonist, Compound concentration 10.0 uM
[2] = target: T1, 5-hydroxytryptamine receptor 3A (Homo sapiens) (UniProt P46098); test: 5-HT3 (h) Eurofins-Cerep binding assay; set-up: ligand concentration 0.5 nM; conditions: filed as antagonist, Compound concentration 10.0 uM
T1 sequence (whole entry): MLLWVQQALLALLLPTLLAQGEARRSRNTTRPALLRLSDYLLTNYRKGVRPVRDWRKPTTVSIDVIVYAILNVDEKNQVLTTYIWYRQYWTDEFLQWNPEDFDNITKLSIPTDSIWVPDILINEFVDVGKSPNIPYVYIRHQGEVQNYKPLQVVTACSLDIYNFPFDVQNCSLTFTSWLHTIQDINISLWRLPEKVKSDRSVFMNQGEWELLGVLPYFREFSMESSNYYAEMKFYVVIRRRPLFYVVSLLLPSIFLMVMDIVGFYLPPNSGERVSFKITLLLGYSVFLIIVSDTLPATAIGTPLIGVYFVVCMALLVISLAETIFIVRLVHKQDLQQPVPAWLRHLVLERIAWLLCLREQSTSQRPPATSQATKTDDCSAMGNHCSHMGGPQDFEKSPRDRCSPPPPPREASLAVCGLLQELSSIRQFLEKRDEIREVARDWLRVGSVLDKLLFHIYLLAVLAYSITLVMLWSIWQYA

[3] = target: Androgen receptor (Homo sapiens) (UniProt P10275); test: AR (h) Eurofins-Cerep binding assay; set-up: ligand concentration 1 nM; conditions: filed as agonist, Compound concentration 10.0 uM
[4] = target: Sulfonylurea receptors; K-ATP channels (Rattus norvegicus) (UniProt Q63563+P70673+Q63664+Q09429); test: KATP channel Eurofins-Cerep binding assay; format: protein-complex assay; conditions: filed as antagonist, Compound concentration 10.0 uM
[5] = target: Sodium- and chloride-dependent GABA transporter 1 (Rattus norvegicus) (UniProt P23978); test: GABA transporter Eurofins-Cerep binding assay; set-up: ligand concentration 10 nM; conditions: filed as antagonist, Compound concentration 10.0 uM
[6] = target: Aurora kinase C (Homo sapiens) (UniProt Q9UQB9); conditions: Compound concentration 1000.0 nM
[7] = target: Calcium/calmodulin-dependent protein kinase kinase 2 (Homo sapiens) (UniProt Q96RR4); conditions: Compound concentration 1000.0 nM
[8] = target: Cyclin-dependent kinase 13 (Homo sapiens) (UniProt Q14004); conditions: Compound concentration 1000.0 nM
[9] = target: Cyclin-dependent kinase 4 (Homo sapiens) (UniProt P11802); conditions: Compound concentration 1000.0 nM
[10] = target: Cyclin-dependent kinase 8 (Homo sapiens) (UniProt P49336); conditions: Compound concentration 1000.0 nM
[11] = target: Cyclin-dependent kinase 9 (Homo sapiens) (UniProt P50750); conditions: Compound concentration 1000.0 nM
[12] = target: Casein kinase II subunit alpha (Homo sapiens) (UniProt P68400); conditions: Compound concentration 1000.0 nM
[13] = target: Epithelial discoidin domain-containing receptor 1 (Homo sapiens) (UniProt Q08345); conditions: Compound concentration 1000.0 nM
[14] = target: Serine/threonine-protein kinase 17B (Homo sapiens) (UniProt O94768); conditions: Compound concentration 1000.0 nM
[15] = system: Epidermal growth factor receptor (Homo sapiens), P00533 [UNDEFINED MUTATION]; conditions: Compound concentration 1000.0 nM
[16] = system: Epidermal growth factor receptor (Homo sapiens), P00533 [L858R,T790M]; conditions: Compound concentration 1000.0 nM
[17] = target: Receptor tyrosine-protein kinase erbB-2 (Homo sapiens) (UniProt P04626); conditions: Compound concentration 1000.0 nM
[18] = target: Mitogen-activated protein kinase 3 (Homo sapiens) (UniProt P27361); conditions: Compound concentration 1000.0 nM
[19] = target: Homeodomain-interacting protein kinase 3 (Homo sapiens) (UniProt Q9H422); conditions: Compound concentration 1000.0 nM
[20] = target: Serine/threonine-protein kinase ICK (Homo sapiens) (UniProt Q9UPZ9); conditions: Compound concentration 1000.0 nM
[21] = target: Tyrosine-protein kinase JAK1 (Homo sapiens) (UniProt P23458); conditions: Compound concentration 1000.0 nM
[22] = system: Mast/stem cell growth factor receptor Kit (Homo sapiens), P10721 [A829P]; conditions: Compound concentration 1000.0 nM
[23] = system: Mast/stem cell growth factor receptor Kit (Homo sapiens), P10721 [D816H]; conditions: Compound concentration 1000.0 nM
[24] = target: Mitogen-activated protein kinase kinase kinase 13 (Homo sapiens) (UniProt O43283); conditions: Compound concentration 1000.0 nM
[25] = target: Serine/threonine-protein kinase MARK2 (Homo sapiens) (UniProt Q7KZI7); conditions: Compound concentration 1000.0 nM
[26] = target: MAP kinase-interacting serine/threonine-protein kinase 2 (Homo sapiens) (UniProt Q9HBH9); conditions: Compound concentration 1000.0 nM
[27] = target: Cyclin-dependent kinase 2 homolog (Plasmodium falciparum (isolate 3D7)) (UniProt P61075); conditions: Compound concentration 1000.0 nM
[28] = target: Phosphatidylinositol 4,5-bisphosphate 3-kinase catalytic subunit beta isoform (Homo sapiens) (UniProt P42338); conditions: Compound concentration 1000.0 nM
[29] = target: Phosphatidylinositol 4,5-bisphosphate 3-kinase catalytic subunit delta isoform (Homo sapiens) (UniProt O00329); conditions: Compound concentration 1000.0 nM
[30] = target: Serine/threonine-protein kinase PknB (Mycobacterium tuberculosis) (UniProt P9WI81); conditions: Compound concentration 1000.0 nM
[31] = target: Serine/threonine-protein kinase D1 (Homo sapiens) (UniProt Q15139); conditions: Compound concentration 1000.0 nM
[32] = target: cGMP-dependent protein kinase 1 (Homo sapiens) (UniProt Q13976); conditions: Compound concentration 1000.0 nM
[33] = target: Proto-oncogene tyrosine-protein kinase ROS (Homo sapiens) (UniProt P08922); conditions: Compound concentration 1000.0 nM
[34] = target: High affinity nerve growth factor receptor (Homo sapiens) (UniProt P04629); conditions: Compound concentration 1000.0 nM
[35] = target: Transient receptor potential cation channel subfamily M member 6 (Homo sapiens) (UniProt Q9BX84); conditions: Compound concentration 1000.0 nM
[36] = target: Testis-specific serine/threonine-protein kinase 3 (Homo sapiens) (UniProt Q96PN8); conditions: Compound concentration 1000.0 nM
[37] = target: Vascular endothelial growth factor receptor 2 (Homo sapiens) (UniProt P35968); conditions: Compound concentration 1000.0 nM
[38] = target: Serine/threonine-protein kinase WNK3 (Homo sapiens) (UniProt Q9BYP7); conditions: Compound concentration 1000.0 nM

Sequence of Cyclin-dependent kinase 13 (Homo sapiens) (Q14004 whole entry, looked up): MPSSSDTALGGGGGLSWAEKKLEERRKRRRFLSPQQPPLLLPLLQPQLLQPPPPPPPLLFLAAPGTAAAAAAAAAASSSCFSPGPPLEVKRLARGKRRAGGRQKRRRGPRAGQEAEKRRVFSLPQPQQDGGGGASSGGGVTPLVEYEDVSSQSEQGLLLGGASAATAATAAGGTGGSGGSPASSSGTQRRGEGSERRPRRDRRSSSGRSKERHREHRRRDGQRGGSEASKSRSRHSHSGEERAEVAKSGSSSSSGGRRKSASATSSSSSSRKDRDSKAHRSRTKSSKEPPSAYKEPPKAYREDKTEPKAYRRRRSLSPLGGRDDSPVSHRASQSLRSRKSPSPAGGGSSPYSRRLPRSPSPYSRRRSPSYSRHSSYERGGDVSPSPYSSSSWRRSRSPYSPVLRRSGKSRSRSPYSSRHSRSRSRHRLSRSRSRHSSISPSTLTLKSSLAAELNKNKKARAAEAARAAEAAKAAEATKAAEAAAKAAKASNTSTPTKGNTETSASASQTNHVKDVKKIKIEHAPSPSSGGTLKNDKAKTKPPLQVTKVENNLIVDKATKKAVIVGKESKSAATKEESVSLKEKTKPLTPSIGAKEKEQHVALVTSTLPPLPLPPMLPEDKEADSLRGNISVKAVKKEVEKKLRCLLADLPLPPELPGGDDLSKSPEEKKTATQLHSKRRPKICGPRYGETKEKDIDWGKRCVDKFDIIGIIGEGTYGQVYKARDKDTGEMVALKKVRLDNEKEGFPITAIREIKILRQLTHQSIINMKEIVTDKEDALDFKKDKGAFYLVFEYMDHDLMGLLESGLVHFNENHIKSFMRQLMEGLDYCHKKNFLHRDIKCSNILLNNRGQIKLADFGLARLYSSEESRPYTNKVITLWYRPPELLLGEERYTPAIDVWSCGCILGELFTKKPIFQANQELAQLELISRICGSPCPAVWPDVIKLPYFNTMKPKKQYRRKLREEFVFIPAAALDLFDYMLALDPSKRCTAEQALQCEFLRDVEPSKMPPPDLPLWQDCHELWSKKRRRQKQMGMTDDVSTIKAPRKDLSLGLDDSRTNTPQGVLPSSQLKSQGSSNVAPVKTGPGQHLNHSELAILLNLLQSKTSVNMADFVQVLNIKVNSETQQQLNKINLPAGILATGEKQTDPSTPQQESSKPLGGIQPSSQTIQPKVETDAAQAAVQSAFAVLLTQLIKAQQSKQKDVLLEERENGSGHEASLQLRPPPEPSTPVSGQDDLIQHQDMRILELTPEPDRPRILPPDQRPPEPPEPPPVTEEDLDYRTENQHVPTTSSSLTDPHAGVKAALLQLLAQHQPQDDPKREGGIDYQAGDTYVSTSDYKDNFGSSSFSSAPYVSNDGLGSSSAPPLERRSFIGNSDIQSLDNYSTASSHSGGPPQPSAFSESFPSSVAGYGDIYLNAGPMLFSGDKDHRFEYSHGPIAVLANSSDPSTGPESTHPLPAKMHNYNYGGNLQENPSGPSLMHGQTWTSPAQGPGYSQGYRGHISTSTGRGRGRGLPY
Sequence of Serine/threonine-protein kinase D1 (Homo sapiens) (Q15139 whole entry): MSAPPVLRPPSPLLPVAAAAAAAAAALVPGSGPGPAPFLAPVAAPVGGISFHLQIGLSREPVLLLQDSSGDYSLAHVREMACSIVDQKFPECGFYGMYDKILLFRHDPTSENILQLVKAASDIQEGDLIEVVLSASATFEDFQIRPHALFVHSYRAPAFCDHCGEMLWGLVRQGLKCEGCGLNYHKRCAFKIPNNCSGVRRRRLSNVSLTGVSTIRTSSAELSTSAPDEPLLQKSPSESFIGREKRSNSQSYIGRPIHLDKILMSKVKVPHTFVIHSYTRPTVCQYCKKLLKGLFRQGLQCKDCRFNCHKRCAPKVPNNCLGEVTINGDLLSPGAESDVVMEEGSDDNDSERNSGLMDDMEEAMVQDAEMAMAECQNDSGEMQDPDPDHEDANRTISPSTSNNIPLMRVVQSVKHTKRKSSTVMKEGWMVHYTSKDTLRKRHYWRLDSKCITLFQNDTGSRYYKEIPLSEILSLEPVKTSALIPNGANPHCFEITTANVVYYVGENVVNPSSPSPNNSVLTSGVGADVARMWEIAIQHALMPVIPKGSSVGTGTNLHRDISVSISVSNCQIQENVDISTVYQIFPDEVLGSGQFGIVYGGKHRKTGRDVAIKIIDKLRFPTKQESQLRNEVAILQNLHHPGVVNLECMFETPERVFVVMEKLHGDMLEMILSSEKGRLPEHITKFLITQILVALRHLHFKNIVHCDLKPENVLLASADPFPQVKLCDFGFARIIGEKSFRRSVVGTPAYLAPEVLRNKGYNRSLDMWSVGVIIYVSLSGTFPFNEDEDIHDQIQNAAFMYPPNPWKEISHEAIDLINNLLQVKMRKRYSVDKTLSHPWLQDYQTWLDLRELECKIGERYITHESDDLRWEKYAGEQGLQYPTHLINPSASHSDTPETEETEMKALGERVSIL
Sequence of Serine/threonine-protein kinase ICK (Homo sapiens) (Q9UPZ9 whole entry): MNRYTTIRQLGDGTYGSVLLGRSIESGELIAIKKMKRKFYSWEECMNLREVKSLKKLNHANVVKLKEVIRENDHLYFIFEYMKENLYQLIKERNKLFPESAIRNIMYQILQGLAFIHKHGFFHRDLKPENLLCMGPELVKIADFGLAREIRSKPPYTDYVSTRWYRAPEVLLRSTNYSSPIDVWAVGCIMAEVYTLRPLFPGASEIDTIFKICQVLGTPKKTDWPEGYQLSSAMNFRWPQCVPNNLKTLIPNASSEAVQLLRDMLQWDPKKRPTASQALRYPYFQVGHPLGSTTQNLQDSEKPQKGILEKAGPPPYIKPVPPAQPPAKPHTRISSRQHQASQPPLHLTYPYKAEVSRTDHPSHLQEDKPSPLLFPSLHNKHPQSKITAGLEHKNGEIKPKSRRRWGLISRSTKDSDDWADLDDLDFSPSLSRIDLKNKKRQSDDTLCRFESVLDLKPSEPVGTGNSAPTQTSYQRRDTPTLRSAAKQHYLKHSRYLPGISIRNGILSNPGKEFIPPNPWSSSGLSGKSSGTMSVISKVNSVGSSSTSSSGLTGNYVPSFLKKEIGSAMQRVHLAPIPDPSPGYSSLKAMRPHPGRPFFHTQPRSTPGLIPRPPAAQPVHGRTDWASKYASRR
Sequence of Homeodomain-interacting protein kinase 3 (Homo sapiens) (Q9H422 whole entry, looked up): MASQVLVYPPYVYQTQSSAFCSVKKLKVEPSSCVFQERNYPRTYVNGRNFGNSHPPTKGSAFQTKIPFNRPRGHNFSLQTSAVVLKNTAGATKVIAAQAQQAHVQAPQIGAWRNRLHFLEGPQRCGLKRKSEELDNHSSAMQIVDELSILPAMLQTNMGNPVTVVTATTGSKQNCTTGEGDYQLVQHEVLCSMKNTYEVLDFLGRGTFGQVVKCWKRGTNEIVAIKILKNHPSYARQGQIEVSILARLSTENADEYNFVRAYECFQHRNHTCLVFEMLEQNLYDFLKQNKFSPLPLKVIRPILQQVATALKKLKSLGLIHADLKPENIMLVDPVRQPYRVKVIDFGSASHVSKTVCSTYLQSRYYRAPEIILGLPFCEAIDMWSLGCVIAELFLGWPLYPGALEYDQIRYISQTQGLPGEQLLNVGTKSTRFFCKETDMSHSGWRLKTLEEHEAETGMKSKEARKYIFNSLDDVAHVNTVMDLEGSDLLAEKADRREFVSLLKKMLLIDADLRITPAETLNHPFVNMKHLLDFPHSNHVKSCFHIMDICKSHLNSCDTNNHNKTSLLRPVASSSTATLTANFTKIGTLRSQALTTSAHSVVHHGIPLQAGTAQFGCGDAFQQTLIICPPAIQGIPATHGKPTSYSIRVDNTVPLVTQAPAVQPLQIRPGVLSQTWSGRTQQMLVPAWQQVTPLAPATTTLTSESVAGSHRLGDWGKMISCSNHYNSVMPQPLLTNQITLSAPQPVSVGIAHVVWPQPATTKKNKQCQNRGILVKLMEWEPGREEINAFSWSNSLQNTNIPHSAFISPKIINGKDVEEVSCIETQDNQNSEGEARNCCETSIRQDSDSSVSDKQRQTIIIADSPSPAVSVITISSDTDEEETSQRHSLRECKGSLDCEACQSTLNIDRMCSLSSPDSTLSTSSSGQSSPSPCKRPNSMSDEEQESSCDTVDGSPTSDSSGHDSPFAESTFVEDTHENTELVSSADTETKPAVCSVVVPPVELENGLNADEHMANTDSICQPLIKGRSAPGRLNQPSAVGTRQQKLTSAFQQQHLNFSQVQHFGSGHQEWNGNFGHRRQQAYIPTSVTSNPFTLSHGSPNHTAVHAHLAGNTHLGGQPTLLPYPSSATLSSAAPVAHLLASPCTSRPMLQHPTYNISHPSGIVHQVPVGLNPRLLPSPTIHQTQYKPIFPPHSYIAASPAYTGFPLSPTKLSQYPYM
Sequence of Cyclin-dependent kinase 8 (Homo sapiens) (P49336 whole entry): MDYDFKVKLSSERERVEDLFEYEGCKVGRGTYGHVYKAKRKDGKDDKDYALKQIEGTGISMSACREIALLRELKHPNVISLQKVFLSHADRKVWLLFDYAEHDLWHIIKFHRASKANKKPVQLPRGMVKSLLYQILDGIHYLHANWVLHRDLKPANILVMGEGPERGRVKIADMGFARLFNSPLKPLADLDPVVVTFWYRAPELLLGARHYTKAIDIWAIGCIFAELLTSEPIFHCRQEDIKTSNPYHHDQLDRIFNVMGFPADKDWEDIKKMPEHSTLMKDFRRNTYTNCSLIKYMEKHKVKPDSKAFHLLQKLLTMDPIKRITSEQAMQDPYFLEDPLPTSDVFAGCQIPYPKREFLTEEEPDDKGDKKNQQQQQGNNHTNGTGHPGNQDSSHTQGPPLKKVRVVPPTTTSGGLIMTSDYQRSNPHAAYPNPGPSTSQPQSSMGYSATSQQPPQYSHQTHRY
Sequence of Aurora kinase C (Homo sapiens) (Q9UQB9 whole entry): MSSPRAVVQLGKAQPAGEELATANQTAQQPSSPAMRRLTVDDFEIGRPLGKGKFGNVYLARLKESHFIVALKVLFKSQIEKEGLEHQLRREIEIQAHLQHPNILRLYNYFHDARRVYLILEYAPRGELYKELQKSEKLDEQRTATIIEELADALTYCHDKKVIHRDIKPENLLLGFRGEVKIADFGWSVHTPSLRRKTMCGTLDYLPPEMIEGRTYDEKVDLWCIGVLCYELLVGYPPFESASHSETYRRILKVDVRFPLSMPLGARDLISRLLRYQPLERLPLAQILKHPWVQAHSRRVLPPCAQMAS

| Compound | % Inhibition of Control Specific Binding (Mean n=2) [1] | % Inhibition of Control Specific Binding (Mean n=2) [2] | % Inhibition of Control Specific Binding (Mean n=2) [3] | % Inhibition of Control Specific Binding (Mean n=2) [4] | % Inhibition of Control Specific Binding (Mean n=2) [5] | residual activity [6] | residual activity [7] | residual activity [8] | residual activity [9] | residual activity [10] | residual activity [11] | residual activity [12] | residual activity [13] | residual activity [14] | residual activity [15] | residual activity [16] | residual activity [17] | residual activity [18] | residual activity [19] | residual activity [20] | other results |
| --- | --- | --- | --- | --- | --- | --- | --- | --- | --- | --- | --- | --- | --- | --- | --- | --- | --- | --- | --- | --- | --- |
| CCCOc1ccc([C@@H]2[C@@H](C(=O)O)[C@H](c3ccc4c(c3)OCO4)CN2CC(=O)Nc2c(CC)cccc2CC)cc1 [A-1806262] | -5.6% | -7.1% | -11.6% | 6% | -17.3% | 94% | 84% | 81% | 96% | 86% | 87% | 100% | 89% | 93% | 66% | 87% | 80% | 93% | 85% | 100% | residual activity [21]: 100%; residual activity [22]: 66%; residual activity [23]: 94%; residual activity [24]: 75%; residual activity [25]: 92%; residual activity [26]: 87%; residual activity [27]: 97%; residual activity [28]: 92%; residual activity [29]: 90%; residual activity [30]: 98%; residual activity [31]: 96%; residual activity [32]: 97%; residual activity [33]: 90%; residual activity [34]: 97%; residual activity [35]: 77%; residual activity [36]: 81%; residual activity [37]: 72%; residual activity [38]: 94% |
| CCCOc1ccc([C@H]2[C@H](C(=O)O)[C@@H](c3ccc4c(c3)OCO4)CN2CC(=O)Nc2c(CC)cccc2CC)cc1 [A-192621] | -9.3% | -10.7% | -11.6% | 11.1% | -12% | 91% | 93% | 45% | 89% | 76% | 88% | 69% | 100% | 91% | 89% | 75% | 79% | 93% | 74% | 59% | residual activity [21]: 95%; residual activity [22]: 63%; residual activity [23]: 72%; residual activity [24]: 47%; residual activity [25]: 88%; residual activity [26]: 74%; residual activity [27]: 87%; residual activity [28]: 73%; residual activity [29]: 75%; residual activity [30]: 78%; residual activity [31]: 94%; residual activity [32]: 88%; residual activity [33]: 98%; residual activity [34]: 84%; residual activity [35]: 94%; residual activity [36]: 58%; residual activity [37]: 77%; residual activity [38]: 90% |
